What was measured:
[1] = system: mouse collagen-induced arthritis (CIA) model; assay: Mouse CIA model, arthritis score of hind paws (21-day treatment); format: in vivo; details: Prednisolone 3 mg/kg oral once daily
Protocol: (§1) For the mouse CIA model, male DBA/1JNCrlj mice (7 weeks old) were injected with complete Freund’s adjuvant (CFA) (BD Biosciences) containing 2 mg/mL of bovine type II collagen at a site on the back (each 0.1 mL) and were boosted 21 days later in a similar manner. Arthritis scores were determined as previously reported.

[2] = system: mouse collagen-induced arthritis (CIA) model; assay: Micro-CT imaging in the CIA model (BMD); format: in vivo; details: for BMD: Prednisolone 3 mg/kg oral once daily
Protocol: as §1
The bone morphology of CIA mice was evaluated via micro-CT using Cosmo Scan (Rigaku, Tokyo, Japan). Hind paws of the mice were scanned using the following scanning conditions: 90 kV; 88 μA; field of view, 25 mm; 2 min. The BMD was calculated using the Analyze version 11.0 software (Biomedical Imaging Resource, Mayo Clinic, Rochester, MN). The bone was determined to have a BMD value ≥480 mg/cm^3, and the region of interest for calculating the BMD included the talus and cuboid. BMD was calibrated using a QRM-MicroCT-HA phantom (Quality Assurance in Radiology and Medicine, Moehrendorg, Germany) that was scanned on each day when micro-CT of animals was performed. Calibration was performed via scanning phantoms with densities of 0, 50, 200, 800, and 1200 mg HA/cm^3, and data analysis was performed using the Analyze11.0 Bone Mineral Density Analysis procedure.

[3] = system: mouse collagen-induced arthritis (CIA) model; assay: Histopathological evaluation in the mouse CIA model; format: in vivo; details: Prednisolone 3 mg/kg oral, 15 days
Protocol: as §1
On the day after the final administration, the four limbs of each mouse were harvested and decalcified in […]. The specimens were then embedded in paraffin blocks, cut into sections, stained with hematoxylin and eosin, and randomly selected for microscopic examination. Histopathological assessments were performed as described previously. This experiment was carried out in the laboratory of the BoZo Research Center Inc. (Ibaraki, Japan).

[4] = system: mouse collagen-induced arthritis (CIA) model; assay: Mouse CIA model, arthritis score (15-day treatment); format: in vivo; details: Prednisolone 3 mg/kg oral once daily
Protocol: as §1

[5] = system: rat collagen-induced arthritis (CIA) model; assay: Rat CIA model, hind paw volume; format: in vivo; design: unit not given beside the values; details: Prednisolone 1 mg/kg oral once daily
Protocol: For the rat CIA model, experimental arthritis was induced and volumes of both hind paws were measured as previously described.

patients with RA = system: patients with RA; design: method as in PMID 31036625; details: compared with placebo, clinical trials for RA; cited from earlier work
[6] = system: ovariectomized cynomolgus monkeys; design: method as in PMID 21497676; details: cited from earlier work

Molecule: C[C@]12C=CC(=O)C=C1CC[C@@H]1[C@@H]2[C@@H](O)C[C@@]2(C)[C@H]1CC[C@]2(O)C(=O)CO [Prednisolone, prednisolone]
- Arthritis score of hind paws ([1]; day 1): 7.33
- Arthritis score of hind paws ([1]; day 8): 6.58
- Arthritis score of hind paws ([1]; day 14): 5.75
- Arthritis score of hind paws ([1]; day 22): 4.75
- BMD ([2]; day 1): 957.82 mg/mL
- BMD ([2]; day 8): 961.86 mg/mL
- BMD ([2]; day 14): 984.25 mg/mL
- BMD ([2]; day 22): 1000.83 mg/mL
- decline in BMD, effect compared with vehicle ([2]; Prednisolone 3 mg/kg/day, 21 days): did not exhibit significant therapeutic effects
- Histological score, Bone damage [3]: 3.50
- Histological score, Cartilage damage [3]: 4.75
- Histological score, Inflammation [3]: 5.25
- Histological score, Pannus [3]: 4.13
- Arthritis score ([4]; day 1): 6.63
- Arthritis score ([4]; day 4): 7.88
- Arthritis score ([4]; day 8): 8.38
- Arthritis score ([4]; day 11): 7.88
- Arthritis score ([4]; day 15): 2.88
- Hind paws volume ([5]; day 0): 2.1
- Hind paws volume ([5]; day 4): 2.12
- Hind paws volume ([5]; day 7): 2.09
- Hind paws volume ([5]; day 11): 2.16
- Hind paws volume ([5]; day 14): 2.18
- Hind paws volume ([5]; day 18): 2.25
- Hind paws volume ([5]; day 21): 2.37

Molecule: denosumab: anti-human RANKL monoclonal antibody
- bone erosion progression (patients with RA): inhibited
- BMD and bone strength [6]: improved
